Experimental data published in patent US20060090219A1, “Methods for producing plants with improved growth under nitrogen-limited conditions” (priority 2003, published 2006).

Assays:
[1] = test system: potatoes (May Queen cultivar); test: Yield survey of potatoes after foliar application of proline under low-nitrogen conditions; assay type: in vivo, potato; conditions: for Total tuber weight (per plant) / Total number of tubers (per plant): foliar spray 6 times at one-week intervals, harvest 3 months after planting, n = 6; for Total tuber weight (per plant): low-nitrogen soil (total nitrogen 0.6 g); for Total number of tubers (per plant): low-nitrogen soil; for Ratio of total number of tubers to spreader group / Ratio of total tuber weight to spreader group: same test, spreader group = 1.00
Procedure: The effects of foliar application of a proline solution on growth and yield were investigating using potatoes (May Queen cultivar). Potato tubers were placed in No. 7 pots containing 1.5 kg of Power Soil (Kureha Chemical). Under normal cultivation conditions, about 5 g of nitrogen fertilizer is used as base fertilizer; while in this cultivation test, cultivation was under low-nitrogen conditions.
(§1) Three foliar application groups were prepared—a spreader group (Approach B1, Kao), a urea group (spreader+0.87 mM urea), and a proline group (spreader+1.75 mM proline), and about 20 ml per plant was sprayed once a week beginning about a month after planting (immediately before flowering). The leaves were sprayed 6 times (6 weeks), and harvested 3 months after planting.
Aqueous solutions of a spreader, urea and proline were applied 6 times at one-week intervals to the leaf surfaces of potato plants 1 month after planting. These were cultivated for 3 months after planting, with 6 pots in each group and one stalk per plant. The tubers were harvested from each pot, and the tuber weight and number of tubers per pot was measured.

potato leaf tissue = conditions: 24 hours after foliar application, compared with spreader and urea groups, n=6
Procedure: as §1

Structure (SMILES): O=C(O)[C@@H]1CCCN1 [Proline, proline]
- Total tuber weight (per plant) [1]: 158.4 ± 18.0 g
- Total tuber weight (per plant) ([1]; listed as proline): 158.4 g
- Total number of tubers (per plant) [1]: 8.2 ± 1.0
- Total number of tubers (per plant) ([1]; listed as proline): 8.2
- Ratio of total number of tubers to spreader group [1]: 1.00
- Ratio of total tuber weight to spreader group [1]: 1.10
- Ratio of total tuber weight to spreader group ([1]; listed as proline): 1.1
- 2-OG content in leaf tissue (potato leaf tissue): significantly greater

Structure (SMILES): NC(N)=O [Urea, urea, reference compound]
- Total tuber weight (per plant) [1]: 140.1 ± 10.6 g
- Total tuber weight (per plant) ([1]; listed as urea): 140.1 g
- Total number of tubers (per plant) [1]: 6.8 ± 1.6
- Total number of tubers (per plant) ([1]; listed as urea): 6.8
- Ratio of total number of tubers to spreader group [1]: 0.83
- Ratio of total tuber weight to spreader group [1]: 0.96
